Measurements from US20190231785A1, “PHOSPHODIESTERASE INHIBITOR TREATMENT” (Cyrano Therapeutics, Inc., priority 2012, published 2019).
Marks after values point to notes of the source that are not given here.

Test system: patients with hyposmia
Assay: Olfactometry (DT, RT, ME, H; forced-choice, three-stimuli, stepwise-staircase, four odors), open trial of oral theophylline
Format: in vivo, human
Text: Patients initially reported their sensory dysfunction as either loss of taste (e.g., flavor) and/or smell function. This subjective response was documented by objective psychophysical measurements of olfactory function administered to each patient by use of a forced-choice, three-stimuli, stepwise-staircase technique in a fixed, controlled design (1, 53). Efficacy of this technique and results of testing were previously documented in a double-blind clinical trial (53). Four odors were used; they were pyridine (dead-fish odor), nitrobenzene (bitter-almond odor), thiophene (petroleum-like odor) and amyl acetate (banana-oil odor). Detection thresholds (DT), recognition thresholds (RT) and magnitude estimation (ME) values for each odor were determined as previously described (1, 53). Thresholds were converted into bottle units (BU) as previously described (53) and results reported as M±SEM of correct responses for each odor in each treatment group; ME was reported in % and results calculated to obtain M±SEM for each treatment group for all correct responses using data for the four highest odor concentrations presented (from 10^−2M—an absolute odor concentration).
In addition, each patient graded the hedonic (H) value of each odor presented for these same odor concentrations (from 10^−2M—an absolute odor concentration using a −100-0-+100 scale). […] Results were obtained by calculating the arithmetical sum of each correct recognition response for each odor with respect to its pleasantness, unpleasantness or neutrality. Arithmetic M±SEM were obtained for each treatment group for each odor presented.
After determination of hyposmia, patients were treated in an open label, fixed design, controlled open trial. Patients were given an oral extended release theophylline in divided daily doses taken in the middle of breakfast and lunch. All patients were initially given 200 mg of theophylline; changes in this dose were made based upon subjective responses to therapy. If at a subsequent return visit, patients reported ≥5% subjective improvement in overall smell function, they continued on this same dose of theophylline and were reevaluated after four to six months of continued treatment. Results from any subsequent return from these improved patients were not included in any subsequent data report. All subsequent comparisons between treated and untreated patients were made only between those patients continuing in the study compared to their own measurements obtained in the untreated state. If patients reported <5% subjective improvement, their theophylline dose was increased by 200 mg daily and they were scheduled for retesting at the study site after two to four months at this new dosage. For patients that reported <5% improvement, this sequence continued until patients reached 800 mg of theophylline, at which time the study was considered completed.
Patients returned for reevaluation after two to four months of treatment. Measurements of blood serum theophylline were measured by a fluorescence polarization assay (Abbott, Chicago, Ill.). At this time, subjective changes in smell function were measured independently (compared to patient's memory of previous normal smell function monitored by use of the patients' daily measurements) using the scale from −100-0-+100 previously described (vs). After independently recording their subjective responses, smell function was measured for all four odors with DT, RT, ME and H determined without recourse to prior measurements.
Since data for all measurements from each patient group (local or distant) on each dose level were combined mean and SEM for each measurement (DT, RT, ME, H) of smell function for each treatment group were calculated on this basis. Differences in measurements between before treatment and each treatment level were calculated and significance of differences estimated using Student t tests (values p<0.05 considered significant). […]

[1] = Type II hyposmia, oral 800 mg, after treatment (16 patients)
[2] = Type III hyposmia, oral 200 mg, after treatment (4 patients)
[3] = Type III hyposmia, oral 400 mg, after treatment (2 patients)
[4] = Type III hyposmia, oral 600 mg, after treatment (4 patients)
[5] = oral 800 mg, vs before treatment

Structure (SMILES): Cn1c(=O)c2[nH]cnc2n(C)c1=O [theophylline]
- recognition threshold (RT), thiophene (Type II hyposmia, oral 600 mg, after treatment (105 patients)): 8.1 ± 0.3^a BU
- detection threshold (DT), amyl acetate [1]: 4.6 ± 0.7^a BU
- detection threshold (DT), nitrobenzene [1]: 4.6 ± 0.9^a BU
- detection threshold (DT), pyridine [1]: 4.7 ± 0.7^a BU
- detection threshold (DT), thiophene [1]: 4.9 ± 0.7^a BU
- hedonic value (H), amyl acetate [1]: 13 ± 9%
- hedonic value (H), nitrobenzene [1]: 22 ± 11%
- hedonic value (H), pyridine [1]: −31 ± 9%
- hedonic value (H), thiophene [1]: −24 ± 8%
- magnitude estimation (ME), amyl acetate [1]: 38 ± 6^e %
- magnitude estimation (ME), nitrobenzene [1]: 42 ± 8^b %
- magnitude estimation (ME), pyridine [1]: 43 ± 5^e %
- magnitude estimation (ME), thiophene [1]: 33 ± 6%
- recognition threshold (RT), amyl acetate [1]: 7.1 ± 0.6^a BU
- recognition threshold (RT), nitrobenzene [1]: 5.1 ± 0.9^a BU
- recognition threshold (RT), pyridine [1]: 7.1 ± 0.7^a BU
- recognition threshold (RT), thiophene [1]: 8.0 ± 1.0 BU
- detection threshold (DT), amyl acetate [2]: 2.8 ± 0.5 BU
- detection threshold (DT), nitrobenzene [2]: 3.8 ± 0.7 BU
- detection threshold (DT), pyridine [2]: 4.0 ± 0.6 BU
- detection threshold (DT), thiophene [2]: 3.2 ± 0.8 BU
- hedonic value (H), amyl acetate [2]: 14 ± 13%
- hedonic value (H), nitrobenzene [2]: 13 ± 12%
- hedonic value (H), pyridine [2]: −40 ± 13%
- hedonic value (H), thiophene [2]: −40 ± 18%
- magnitude estimation (ME), amyl acetate [2]: 32 ± 10%
- magnitude estimation (ME), nitrobenzene [2]: 33 ± 8%
- magnitude estimation (ME), pyridine [2]: 45 ± 11%
- magnitude estimation (ME), thiophene [2]: 47 ± 15%
- recognition threshold (RT), amyl acetate [2]: 5.2 ± 1.6 BU
- recognition threshold (RT), nitrobenzene [2]: 5.0 ± 0.6 BU
- recognition threshold (RT), pyridine [2]: 5.2 ± 0.5 BU
- recognition threshold (RT), thiophene [2]: 3.8 ± 0.6 BU
- detection threshold (DT), amyl acetate [3]: 2 BU
- detection threshold (DT), nitrobenzene [3]: 2.5 BU
- detection threshold (DT), pyridine [3]: 5.0 BU
- detection threshold (DT), thiophene [3]: 1 BU
- hedonic value (H), amyl acetate [3]: 75%
- hedonic value (H), nitrobenzene [3]: −62%
- hedonic value (H), pyridine [3]: −40%
- hedonic value (H), thiophene [3]: −99%
- magnitude estimation (ME), amyl acetate [3]: 75%
- magnitude estimation (ME), nitrobenzene [3]: 79%
- magnitude estimation (ME), pyridine [3]: 45%
- magnitude estimation (ME), thiophene [3]: 99%
- recognition threshold (RT), amyl acetate [3]: 3 BU
- recognition threshold (RT), nitrobenzene [3]: 4.0 BU
- recognition threshold (RT), pyridine [3]: 5.0 BU
- recognition threshold (RT), thiophene [3]: 1 BU
- detection threshold (DT), amyl acetate [4]: 2.5 ± 1.0 BU
- detection threshold (DT), nitrobenzene [4]: 3.8 ± 0.9 BU
- detection threshold (DT), pyridine [4]: 3.8 ± 0.9 BU
- detection threshold (DT), thiophene [4]: 2.0 ± 1.0 BU
- hedonic value (H), amyl acetate [4]: 28 ± 19%
- hedonic value (H), nitrobenzene [4]: 12 ± 16%
- hedonic value (H), pyridine [4]: −26 ± 22%
- hedonic value (H), thiophene [4]: −35 ± 24%
- magnitude estimation (ME), amyl acetate [4]: 31 ± 17%
- magnitude estimation (ME), nitrobenzene [4]: 33 ± 13%
- magnitude estimation (ME), pyridine [4]: 41 ± 15%
- magnitude estimation (ME), thiophene [4]: 42 ± 20%
- recognition threshold (RT), amyl acetate [4]: 4.8 ± 1.7 BU
- recognition threshold (RT), nitrobenzene [4]: 4.5 ± 1.3 BU
- recognition threshold (RT), pyridine [4]: 5.5 ± 0.9 BU
- recognition threshold (RT), thiophene [4]: 3.8 ± 0.9 BU
- decrease in H, pyridine (oral 200 mg (Table IV)): 2%
- decrease in H, thiophene (oral 200 mg (Table IV)): 2%
- increase in H, amyl acetate (more pleasant) (oral 200 mg (Table IV)): 2%
- increase in H, nitrobenzene (more pleasant) (oral 200 mg (Table IV)): 2%
- increase in ME, amyl acetate (oral 200 mg (Table IV)): 5%
- increase in ME, nitrobenzene (oral 200 mg (Table IV)): 5%
- increase in ME, pyridine (oral 200 mg (Table IV)): 6%
- increase in ME, thiophene (oral 200 mg (Table IV)): 5%
- total mean increase in ME, all odors (oral 200 mg (Table IV)): 5.1%
- increase of H value, amyl acetate (more pleasant) (oral 200 mg, vs before treatment, not statistically significant): 50%
- change in H, amyl acetate (decreased, became more pleasant) (oral 400 mg (Table V)): 1%
- change in H, nitrobenzene (decreased, became more pleasant) (oral 400 mg (Table V)): 4%
- change in H, pyridine (increases in H values) (oral 400 mg (Table V)): 9%
- change in H, thiophene (increases in H values) (oral 400 mg (Table V)): 7%
- increase in ME, amyl acetate (oral 400 mg (Table V)): 8%
- increase in ME, nitrobenzene (oral 400 mg (Table V)): 11%
- increase in ME, pyridine (oral 400 mg (Table V)): 12%
- increase in ME, thiophene (oral 400 mg (Table V)): 12%
- decrease of H value, thiophene (more unpleasant) (oral 400 mg, vs before treatment): 40%
- increase of H value, nitrobenzene (more pleasant) (oral 400 mg, vs before treatment, not statistically significant): 50%
- total mean increase in ME, all odors (oral 600 mg (Table VI)): 6.9%
- decrease of H value, pyridine (more unpleasant) [5]: 55%
- decrease of H value, thiophene (more unpleasant) [5]: 37%
- increase of H value, amyl acetate (more pleasant) [5]: about 50%
- increase of H value, nitrobenzene (more pleasant) [5]: about 50%
